Source: ChEMBL document CHEMBL5303762, “Data for DCP probe BI-8668” (2023)
Each block holds one molecule with its values, some of them ahead of it.

How the values were obtained:
[1] = biological target: Prostaglandin G/H synthase 2 (Homo sapiens) (UniProt P35354); assay: COX2_HU Eurofins SafetyScreen44 (BI); details: Compound concentration 10.0 uM
[2] = biological target: T1, Alpha-1A adrenergic receptor (Homo sapiens) (UniProt P35348); assay: ALPHA1A(H)ANTAG Eurofins SafetyScreen44 (BI); details: filed as antagonist, Compound concentration 10.0 uM
T1 sequence (whole entry): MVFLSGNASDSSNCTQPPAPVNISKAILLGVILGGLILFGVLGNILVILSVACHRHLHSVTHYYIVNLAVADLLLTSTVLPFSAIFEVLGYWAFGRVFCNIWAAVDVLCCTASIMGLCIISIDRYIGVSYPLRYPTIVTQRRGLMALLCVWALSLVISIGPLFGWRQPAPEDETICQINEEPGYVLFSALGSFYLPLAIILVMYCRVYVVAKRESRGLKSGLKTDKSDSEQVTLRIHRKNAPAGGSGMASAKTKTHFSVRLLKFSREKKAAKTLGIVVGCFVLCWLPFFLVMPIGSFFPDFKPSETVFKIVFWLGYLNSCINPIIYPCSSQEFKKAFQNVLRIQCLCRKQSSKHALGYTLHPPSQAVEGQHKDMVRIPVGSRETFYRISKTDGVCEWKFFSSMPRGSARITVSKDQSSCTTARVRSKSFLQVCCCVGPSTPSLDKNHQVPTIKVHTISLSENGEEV

[3] = biological target: MAO-A (amine oxidase [flavin-containing] A) (Rattus norvegicus, UniProt P21396); assay: (§1) MAO-A_ANTAG Eurofins SafetyScreen44 (BI); design: scale not given: the % may be the effect or the level left; details: compound concentration 10 uM, read-out: % Ctrl
[4] = biological target: Cannabinoid receptor 1 (Homo sapiens) (UniProt P21554); assay: CB1/CENTR/H Eurofins SafetyScreen44 (BI); details: Compound concentration 10.0 uM
Cannabinoid receptor 1 (Homo sapiens), sequence (P21554 whole entry): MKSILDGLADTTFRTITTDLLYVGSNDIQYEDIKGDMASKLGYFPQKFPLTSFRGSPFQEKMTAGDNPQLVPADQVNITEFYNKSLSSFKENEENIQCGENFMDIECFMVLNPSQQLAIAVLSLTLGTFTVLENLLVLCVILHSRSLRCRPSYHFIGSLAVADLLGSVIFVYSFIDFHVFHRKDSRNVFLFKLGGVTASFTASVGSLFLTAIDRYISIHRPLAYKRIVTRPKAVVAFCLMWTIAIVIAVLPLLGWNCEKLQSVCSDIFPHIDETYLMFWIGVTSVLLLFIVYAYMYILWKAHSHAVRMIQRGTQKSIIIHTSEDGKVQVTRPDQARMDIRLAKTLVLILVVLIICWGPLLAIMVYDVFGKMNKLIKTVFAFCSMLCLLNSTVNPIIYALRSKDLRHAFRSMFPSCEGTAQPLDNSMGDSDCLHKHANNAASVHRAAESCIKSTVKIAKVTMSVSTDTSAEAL

[5] = biological target: Kappa-type opioid receptor (Rattus norvegicus) (UniProt P34975); assay: KAPPA/R Eurofins SafetyScreen44 (BI); details: Compound concentration 10.0 uM
[6] = biological target: Prostaglandin G/H synthase 1 (Homo sapiens) (UniProt P23219); assay: COX1_HU Eurofins SafetyScreen44 (BI); details: Compound concentration 10.0 uM
[7] = biological target: T2, 5-hydroxytryptamine receptor 1A (Homo sapiens) (UniProt P08908); details: Compound concentration 10.0 uM
T2 sequence (whole entry): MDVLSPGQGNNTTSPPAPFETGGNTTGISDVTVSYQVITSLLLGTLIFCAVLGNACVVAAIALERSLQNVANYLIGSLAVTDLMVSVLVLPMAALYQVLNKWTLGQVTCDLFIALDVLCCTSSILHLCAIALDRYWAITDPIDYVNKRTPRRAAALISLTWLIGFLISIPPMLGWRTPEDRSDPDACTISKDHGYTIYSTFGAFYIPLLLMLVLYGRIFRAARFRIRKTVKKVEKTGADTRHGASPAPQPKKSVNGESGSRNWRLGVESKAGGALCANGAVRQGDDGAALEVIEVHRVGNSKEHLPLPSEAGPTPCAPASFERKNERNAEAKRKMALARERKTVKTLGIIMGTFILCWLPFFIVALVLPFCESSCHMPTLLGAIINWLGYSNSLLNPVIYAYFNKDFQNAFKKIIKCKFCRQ

[8] = biological target: 5-hydroxytryptamine receptor 1B (Homo sapiens) (UniProt P28222); details: Compound concentration 10.0 uM
5-hydroxytryptamine receptor 1B (Homo sapiens), sequence (P28222 whole entry): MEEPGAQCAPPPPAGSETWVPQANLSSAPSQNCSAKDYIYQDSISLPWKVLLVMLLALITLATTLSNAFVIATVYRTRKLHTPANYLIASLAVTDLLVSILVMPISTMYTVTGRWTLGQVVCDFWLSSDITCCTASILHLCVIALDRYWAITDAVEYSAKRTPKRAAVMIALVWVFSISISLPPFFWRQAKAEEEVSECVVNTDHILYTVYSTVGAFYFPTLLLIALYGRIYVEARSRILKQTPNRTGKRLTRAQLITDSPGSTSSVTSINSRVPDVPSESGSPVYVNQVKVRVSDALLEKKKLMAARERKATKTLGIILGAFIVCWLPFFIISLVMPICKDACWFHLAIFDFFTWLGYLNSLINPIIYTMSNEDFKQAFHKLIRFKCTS

[9] = biological target: T3, 5-hydroxytryptamine receptor 3A (Homo sapiens) (UniProt P46098); details: Compound concentration 10.0 uM
T3 sequence (whole entry): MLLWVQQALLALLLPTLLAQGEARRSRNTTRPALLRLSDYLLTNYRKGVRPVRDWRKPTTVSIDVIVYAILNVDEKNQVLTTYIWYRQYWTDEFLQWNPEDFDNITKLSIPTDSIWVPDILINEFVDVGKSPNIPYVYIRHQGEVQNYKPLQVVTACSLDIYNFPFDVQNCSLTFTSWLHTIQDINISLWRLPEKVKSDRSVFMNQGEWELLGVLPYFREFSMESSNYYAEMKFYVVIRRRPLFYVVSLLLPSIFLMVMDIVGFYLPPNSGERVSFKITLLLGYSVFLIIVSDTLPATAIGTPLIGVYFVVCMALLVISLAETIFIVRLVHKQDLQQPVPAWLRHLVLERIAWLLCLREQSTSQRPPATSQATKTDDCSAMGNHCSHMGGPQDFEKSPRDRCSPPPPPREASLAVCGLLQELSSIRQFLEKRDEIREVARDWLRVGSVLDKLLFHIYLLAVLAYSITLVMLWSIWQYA

[10] = biological target: 5-hydroxytryptamine receptor 7 (Homo sapiens) (UniProt P34969); details: Compound concentration 10.0 uM
5-hydroxytryptamine receptor 7 (Homo sapiens), sequence (P34969 whole entry): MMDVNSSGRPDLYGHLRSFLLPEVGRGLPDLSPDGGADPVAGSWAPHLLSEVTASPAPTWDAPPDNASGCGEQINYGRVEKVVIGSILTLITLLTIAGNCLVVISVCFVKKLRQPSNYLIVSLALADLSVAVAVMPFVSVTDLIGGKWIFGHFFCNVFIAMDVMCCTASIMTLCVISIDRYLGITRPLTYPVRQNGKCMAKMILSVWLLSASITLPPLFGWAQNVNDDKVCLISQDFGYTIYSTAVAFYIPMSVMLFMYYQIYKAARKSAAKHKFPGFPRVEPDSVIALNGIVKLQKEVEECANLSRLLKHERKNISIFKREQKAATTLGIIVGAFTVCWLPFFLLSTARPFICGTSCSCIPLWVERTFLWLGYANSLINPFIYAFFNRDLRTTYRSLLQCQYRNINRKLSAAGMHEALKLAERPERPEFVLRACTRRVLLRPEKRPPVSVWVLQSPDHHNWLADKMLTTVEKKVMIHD

[11] = biological target: Mu-type opioid receptor (Homo sapiens) (UniProt P35372); details: Compound concentration 10.0 uM
Mu-type opioid receptor (Homo sapiens), sequence (P35372 whole entry): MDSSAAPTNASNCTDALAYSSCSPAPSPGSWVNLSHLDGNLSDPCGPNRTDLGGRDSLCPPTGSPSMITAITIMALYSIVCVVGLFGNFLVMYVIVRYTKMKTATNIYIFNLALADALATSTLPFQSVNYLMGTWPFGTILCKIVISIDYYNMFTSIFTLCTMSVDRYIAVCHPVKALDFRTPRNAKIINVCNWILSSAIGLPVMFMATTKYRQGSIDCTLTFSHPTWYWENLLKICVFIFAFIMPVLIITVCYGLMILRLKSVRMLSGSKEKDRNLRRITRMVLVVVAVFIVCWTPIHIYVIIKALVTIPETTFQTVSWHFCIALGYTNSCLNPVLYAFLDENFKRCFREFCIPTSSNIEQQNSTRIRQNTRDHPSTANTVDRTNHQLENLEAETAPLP

[12] = biological target: Alpha-1B adrenergic receptor (Homo sapiens) (UniProt P35368); details: Compound concentration 10.0 uM
Alpha-1B adrenergic receptor (Homo sapiens), sequence (P35368 whole entry): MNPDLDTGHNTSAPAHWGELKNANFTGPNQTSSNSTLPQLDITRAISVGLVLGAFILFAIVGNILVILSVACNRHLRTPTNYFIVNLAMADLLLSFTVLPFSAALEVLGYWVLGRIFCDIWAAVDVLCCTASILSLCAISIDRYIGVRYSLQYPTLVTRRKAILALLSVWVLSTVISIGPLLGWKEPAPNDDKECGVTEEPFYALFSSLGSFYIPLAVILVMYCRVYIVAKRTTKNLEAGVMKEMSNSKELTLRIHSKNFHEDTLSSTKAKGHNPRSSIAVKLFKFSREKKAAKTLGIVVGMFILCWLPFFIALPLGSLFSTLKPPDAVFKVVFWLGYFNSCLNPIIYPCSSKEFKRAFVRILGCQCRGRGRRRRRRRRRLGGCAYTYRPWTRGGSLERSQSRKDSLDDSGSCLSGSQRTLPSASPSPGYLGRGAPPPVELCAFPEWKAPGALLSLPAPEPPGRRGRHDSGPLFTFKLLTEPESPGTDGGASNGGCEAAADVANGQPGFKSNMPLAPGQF

[13] = biological target: T4, Alpha-2A adrenergic receptor (Homo sapiens) (UniProt P08913); details: Compound concentration 10.0 uM
T4 sequence (whole entry): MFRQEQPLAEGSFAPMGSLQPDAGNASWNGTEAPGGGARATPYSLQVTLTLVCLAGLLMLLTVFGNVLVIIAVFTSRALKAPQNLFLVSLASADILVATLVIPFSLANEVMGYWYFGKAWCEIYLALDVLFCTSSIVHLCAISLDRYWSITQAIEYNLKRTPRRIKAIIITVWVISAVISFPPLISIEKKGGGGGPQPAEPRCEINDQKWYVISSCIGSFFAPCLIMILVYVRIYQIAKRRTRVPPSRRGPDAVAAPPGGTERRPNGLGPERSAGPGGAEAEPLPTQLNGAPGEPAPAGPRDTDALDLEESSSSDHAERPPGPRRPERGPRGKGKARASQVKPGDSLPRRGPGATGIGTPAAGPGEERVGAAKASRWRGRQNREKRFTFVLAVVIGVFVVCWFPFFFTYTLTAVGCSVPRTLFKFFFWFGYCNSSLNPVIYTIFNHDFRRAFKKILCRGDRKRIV

[14] = biological target: Alpha-2C adrenergic receptor (Homo sapiens) (UniProt P18825); details: Compound concentration 10.0 uM
Alpha-2C adrenergic receptor (Homo sapiens), sequence (P18825 whole entry): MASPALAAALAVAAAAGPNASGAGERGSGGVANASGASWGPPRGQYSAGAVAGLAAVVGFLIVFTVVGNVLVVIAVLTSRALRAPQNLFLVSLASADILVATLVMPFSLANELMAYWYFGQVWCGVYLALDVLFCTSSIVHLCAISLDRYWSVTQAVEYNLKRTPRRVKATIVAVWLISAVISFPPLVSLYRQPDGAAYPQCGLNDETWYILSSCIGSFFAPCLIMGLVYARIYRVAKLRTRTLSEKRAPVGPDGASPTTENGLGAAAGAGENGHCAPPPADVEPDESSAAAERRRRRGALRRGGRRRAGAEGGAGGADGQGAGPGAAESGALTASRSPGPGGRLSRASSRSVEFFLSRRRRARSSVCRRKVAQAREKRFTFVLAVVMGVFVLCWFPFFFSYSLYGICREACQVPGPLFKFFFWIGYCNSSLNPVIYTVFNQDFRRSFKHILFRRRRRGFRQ

[15] = biological target: Beta-2 adrenergic receptor (Homo sapiens) (UniProt P07550); details: Compound concentration 10.0 uM
Beta-2 adrenergic receptor (Homo sapiens), sequence (P07550 whole entry, looked up): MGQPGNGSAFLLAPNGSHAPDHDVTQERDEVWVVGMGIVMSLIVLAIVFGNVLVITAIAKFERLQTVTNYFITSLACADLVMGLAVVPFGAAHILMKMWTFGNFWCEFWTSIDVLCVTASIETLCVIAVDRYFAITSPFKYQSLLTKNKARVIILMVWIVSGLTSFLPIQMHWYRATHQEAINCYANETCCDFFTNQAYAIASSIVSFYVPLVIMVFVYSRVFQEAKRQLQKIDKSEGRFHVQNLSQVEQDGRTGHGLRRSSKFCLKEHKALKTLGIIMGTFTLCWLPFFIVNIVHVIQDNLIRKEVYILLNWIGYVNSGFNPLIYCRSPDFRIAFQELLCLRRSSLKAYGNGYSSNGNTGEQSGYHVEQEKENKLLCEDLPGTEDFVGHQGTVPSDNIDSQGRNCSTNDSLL

[16] = biological target: Muscarinic acetylcholine receptor M4 (Homo sapiens) (UniProt P08173); details: Compound concentration 10.0 uM
Muscarinic acetylcholine receptor M4 (Homo sapiens), sequence (P08173 whole entry): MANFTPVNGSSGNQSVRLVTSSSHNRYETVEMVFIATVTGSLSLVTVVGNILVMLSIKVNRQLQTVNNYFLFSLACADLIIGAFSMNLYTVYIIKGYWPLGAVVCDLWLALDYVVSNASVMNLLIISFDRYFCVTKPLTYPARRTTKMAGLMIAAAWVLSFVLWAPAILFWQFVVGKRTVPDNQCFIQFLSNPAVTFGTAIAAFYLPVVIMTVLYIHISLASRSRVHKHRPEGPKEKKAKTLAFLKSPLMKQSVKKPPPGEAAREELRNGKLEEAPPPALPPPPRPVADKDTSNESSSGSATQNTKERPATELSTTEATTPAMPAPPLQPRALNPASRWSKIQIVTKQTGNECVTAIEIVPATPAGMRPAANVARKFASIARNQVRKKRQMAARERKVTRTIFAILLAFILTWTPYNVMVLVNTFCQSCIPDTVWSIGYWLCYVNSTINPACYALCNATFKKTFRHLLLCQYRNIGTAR

[17] = biological target: Beta-3 adrenergic receptor (Homo sapiens) (UniProt P13945); details: Compound concentration 10.0 uM
Beta-3 adrenergic receptor (Homo sapiens), sequence (P13945 whole entry, looked up): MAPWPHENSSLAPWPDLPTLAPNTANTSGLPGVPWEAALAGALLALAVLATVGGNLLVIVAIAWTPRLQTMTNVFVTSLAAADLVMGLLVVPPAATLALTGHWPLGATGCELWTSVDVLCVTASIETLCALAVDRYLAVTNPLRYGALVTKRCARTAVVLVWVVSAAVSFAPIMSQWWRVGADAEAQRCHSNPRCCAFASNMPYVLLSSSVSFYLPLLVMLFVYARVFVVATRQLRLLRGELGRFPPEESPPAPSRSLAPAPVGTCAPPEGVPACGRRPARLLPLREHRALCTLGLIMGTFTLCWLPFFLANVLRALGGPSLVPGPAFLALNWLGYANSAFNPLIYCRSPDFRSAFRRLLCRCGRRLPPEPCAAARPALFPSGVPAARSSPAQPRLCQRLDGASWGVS

[18] = species on record: Rattus norvegicus; details: Compound concentration 10.0 uM
[19] = biological target: Sigma non-opioid intracellular receptor 1 (Homo sapiens) (UniProt Q99720); details: Compound concentration 10.0 uM
Sigma non-opioid intracellular receptor 1 (Homo sapiens), sequence (Q99720 whole entry): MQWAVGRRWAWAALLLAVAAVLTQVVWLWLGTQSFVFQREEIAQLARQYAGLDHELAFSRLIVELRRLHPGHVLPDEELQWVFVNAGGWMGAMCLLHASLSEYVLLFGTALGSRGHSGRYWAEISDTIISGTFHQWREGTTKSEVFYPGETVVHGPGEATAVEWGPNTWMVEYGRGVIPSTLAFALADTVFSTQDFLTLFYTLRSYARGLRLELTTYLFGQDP

[20] = biological target: MAO-A (amine oxidase [flavin-containing] A) (Homo sapiens, UniProt P21397); assay: as §1; design: scale not given: the % may be the effect or the level left; details: compound concentration 10 uM, read-out: % Ctrl
[21] = biological target: Cannabinoid receptor 1 (Homo sapiens) (UniProt P21554); assay: CB1(HU)_AGON Eurofins SafetyScreen44 (BI); details: filed as agonist, Compound concentration 10.0 uM

Prostaglandin G/H synthase 2 (Homo sapiens), sequence (P35354 whole entry): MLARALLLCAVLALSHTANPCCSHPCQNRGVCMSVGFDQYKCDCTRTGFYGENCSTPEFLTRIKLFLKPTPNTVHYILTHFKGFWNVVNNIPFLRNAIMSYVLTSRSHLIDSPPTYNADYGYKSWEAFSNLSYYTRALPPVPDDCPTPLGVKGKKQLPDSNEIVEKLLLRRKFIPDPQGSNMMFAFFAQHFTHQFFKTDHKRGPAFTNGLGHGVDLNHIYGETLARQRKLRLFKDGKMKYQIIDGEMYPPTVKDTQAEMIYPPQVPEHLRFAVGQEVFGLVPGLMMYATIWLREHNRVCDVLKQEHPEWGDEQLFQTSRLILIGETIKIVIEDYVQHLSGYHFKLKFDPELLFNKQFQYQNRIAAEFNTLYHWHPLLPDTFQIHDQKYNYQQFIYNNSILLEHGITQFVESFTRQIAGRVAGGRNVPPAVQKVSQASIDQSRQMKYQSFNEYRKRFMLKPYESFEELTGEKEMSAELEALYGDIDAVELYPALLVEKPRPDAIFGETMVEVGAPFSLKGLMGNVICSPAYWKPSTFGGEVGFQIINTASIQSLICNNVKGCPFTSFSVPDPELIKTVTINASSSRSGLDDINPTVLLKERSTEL

- inhibition [7]: -4.21%
- inhibition [8]: 8.35%
- inhibition [9]: 8.37%
- inhibition [10]: 4.76%
- inhibition [11]: 11%
- inhibition [12]: 44.9%
- inhibition [13]: 0.56%
- inhibition [14]: 0.47%
- inhibition [15]: -5.7%
- inhibition [16]: 7.09%
- inhibition [17]: -2.81%
- inhibition [18]: -1.51%
- inhibition [19]: 20%
SMILES: CCn1c(CNC(=O)c2nc(Cl)cnc2N)[n+](CC)c2ccc(C(=O)N(C)CCN(C)C)cc21
- residual activity [1]: 85%
- residual activity [2]: 89%
- activity at 10 µM [3]: 89% (not active)
- residual activity [4]: 99%
- residual activity [5]: 101%
- residual activity [6]: 106%

SMILES: CCn1c(CNC(=O)c2ncc(C)nc2N)[n+](CC)c2ccc(C(=O)N(C)CN(C)C)cc21
- activity at 10 µM [20]: 95% (not active)
- residual activity [21]: 111%
